pKi: −log10 of the molar value.
What was measured:
[1] = target: T1, 5-hydroxytryptamine receptor 3A (Homo sapiens, UniProt P46098); assay: Displacement of [3H]GR65630 from recombinant human 5HT3 receptor transiently expressed in HEKT cells measured after 90 mins by microbeta scintillation counting method; format: cell-based
T1 sequence (P46098 whole entry): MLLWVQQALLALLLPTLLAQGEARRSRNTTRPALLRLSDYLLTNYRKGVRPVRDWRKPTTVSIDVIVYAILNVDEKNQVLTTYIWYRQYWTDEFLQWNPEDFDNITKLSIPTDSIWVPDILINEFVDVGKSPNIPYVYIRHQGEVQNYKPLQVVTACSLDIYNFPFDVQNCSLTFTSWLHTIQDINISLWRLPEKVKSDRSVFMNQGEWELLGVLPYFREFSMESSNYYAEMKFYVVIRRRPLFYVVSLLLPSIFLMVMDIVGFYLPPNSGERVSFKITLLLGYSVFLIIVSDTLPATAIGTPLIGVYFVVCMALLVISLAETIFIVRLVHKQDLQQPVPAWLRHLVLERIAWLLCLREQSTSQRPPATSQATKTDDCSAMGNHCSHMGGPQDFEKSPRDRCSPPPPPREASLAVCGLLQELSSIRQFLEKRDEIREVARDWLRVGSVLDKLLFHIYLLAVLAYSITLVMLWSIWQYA

[2] = target: 5-hydroxytryptamine receptor 1E (Homo sapiens, UniProt P28566); assay: Displacement of [3H]5-HT from recombinant human 5HT1E receptor stably expressed in HEK cells measured after 90 mins by microbeta scintillation counting method; format: cell-based
[3] = target: Kappa-type opioid receptor (Homo sapiens, UniProt P41145); assay: Displacement of [3H]-U69593 from KOR (unknown origin) measured after 90 mins by microbeta scintillation counting method
[4] = target: Sodium-dependent serotonin transporter (Homo sapiens, UniProt P31645); assay: Displacement of [3H]-citalopram from human SERT receptor expressed in stable HEK cells after 90 mins by microbeta scintillation counting method; format: cell-based
[5] = target: D(2) dopamine receptor (Homo sapiens, UniProt P14416); assay: Displacement of [3H]-N-methylspiperone from recombinant human D2 receptor stably expressed in fibroblast cells measured after 90 mins by microbeta scintillation counting method; format: cell-based
[6] = target: T2, Alpha-1A adrenergic receptor (Homo sapiens, UniProt P35348); assay: Displacement of [3H]-prazosin from recombinant human alpha1A adrenergic receptor measured after 90 mins by microbeta scintillation counting method
T2 sequence (P35348 whole entry): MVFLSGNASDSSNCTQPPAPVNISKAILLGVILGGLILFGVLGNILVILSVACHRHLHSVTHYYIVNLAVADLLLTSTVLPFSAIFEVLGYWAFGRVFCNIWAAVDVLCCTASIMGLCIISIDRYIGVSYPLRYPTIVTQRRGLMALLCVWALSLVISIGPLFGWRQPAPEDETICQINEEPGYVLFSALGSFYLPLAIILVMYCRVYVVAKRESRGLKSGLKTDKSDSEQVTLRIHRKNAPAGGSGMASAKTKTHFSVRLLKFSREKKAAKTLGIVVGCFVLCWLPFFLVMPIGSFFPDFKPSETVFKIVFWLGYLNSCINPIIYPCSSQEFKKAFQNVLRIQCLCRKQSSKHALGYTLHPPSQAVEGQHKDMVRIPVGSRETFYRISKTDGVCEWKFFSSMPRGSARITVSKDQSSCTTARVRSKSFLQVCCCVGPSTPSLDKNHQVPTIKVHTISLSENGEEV

[7] = target: T3, Muscarinic acetylcholine receptor M2 (Homo sapiens, UniProt P08172); assay: Displacement of [3H]-QNB/[3H]-NMS from human muscarinic M2 receptor expressed in stable CHO cells after 90 mins by microbeta scintillation counting method; format: cell-based
T3 sequence (P08172 whole entry): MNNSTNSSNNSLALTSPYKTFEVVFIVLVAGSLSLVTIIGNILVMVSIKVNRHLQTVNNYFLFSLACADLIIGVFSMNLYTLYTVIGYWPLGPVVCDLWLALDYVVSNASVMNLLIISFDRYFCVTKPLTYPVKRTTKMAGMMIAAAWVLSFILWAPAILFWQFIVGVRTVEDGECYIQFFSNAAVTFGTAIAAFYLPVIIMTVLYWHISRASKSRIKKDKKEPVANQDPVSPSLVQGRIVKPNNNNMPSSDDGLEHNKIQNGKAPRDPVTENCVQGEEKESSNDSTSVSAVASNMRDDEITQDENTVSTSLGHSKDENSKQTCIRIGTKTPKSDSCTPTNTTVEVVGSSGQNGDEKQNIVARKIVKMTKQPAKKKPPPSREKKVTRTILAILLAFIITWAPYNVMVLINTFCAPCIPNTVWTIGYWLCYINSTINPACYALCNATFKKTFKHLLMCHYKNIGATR

[8] = target: Beta-1 adrenergic receptor (Homo sapiens, UniProt P08588); assay: Displacement of [125I]-pindolol from recombinant human beta1 adrenergic receptor expressed in CHO Flp-In cells measured after 90 mins by microbeta scintillation counting method; format: cell-based
Sequence of Beta-1 adrenergic receptor (P08588 whole entry): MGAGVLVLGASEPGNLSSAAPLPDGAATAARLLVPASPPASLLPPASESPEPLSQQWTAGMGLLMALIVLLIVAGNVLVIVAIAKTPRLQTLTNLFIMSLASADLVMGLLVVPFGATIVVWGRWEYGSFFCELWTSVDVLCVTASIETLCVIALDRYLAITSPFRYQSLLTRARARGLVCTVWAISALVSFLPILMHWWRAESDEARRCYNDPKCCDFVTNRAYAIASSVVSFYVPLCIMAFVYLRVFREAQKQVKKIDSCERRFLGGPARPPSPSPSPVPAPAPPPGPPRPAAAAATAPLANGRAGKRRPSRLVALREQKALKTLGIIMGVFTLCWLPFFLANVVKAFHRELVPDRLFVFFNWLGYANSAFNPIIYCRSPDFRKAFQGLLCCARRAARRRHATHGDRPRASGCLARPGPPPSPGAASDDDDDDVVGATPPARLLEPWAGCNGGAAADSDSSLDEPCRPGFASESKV

Sequence of Kappa-type opioid receptor (P41145 whole entry): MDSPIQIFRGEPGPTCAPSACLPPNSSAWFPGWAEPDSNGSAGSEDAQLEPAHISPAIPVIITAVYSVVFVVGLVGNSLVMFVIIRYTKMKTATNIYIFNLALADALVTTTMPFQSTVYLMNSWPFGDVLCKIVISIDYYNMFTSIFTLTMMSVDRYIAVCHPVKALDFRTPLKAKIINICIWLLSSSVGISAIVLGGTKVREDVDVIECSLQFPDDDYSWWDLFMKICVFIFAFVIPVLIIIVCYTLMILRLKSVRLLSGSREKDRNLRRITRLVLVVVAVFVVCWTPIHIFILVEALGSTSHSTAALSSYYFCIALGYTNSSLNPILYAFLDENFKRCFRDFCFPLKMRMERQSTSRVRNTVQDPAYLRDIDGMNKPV
Sequence of D(2) dopamine receptor (P14416 whole entry): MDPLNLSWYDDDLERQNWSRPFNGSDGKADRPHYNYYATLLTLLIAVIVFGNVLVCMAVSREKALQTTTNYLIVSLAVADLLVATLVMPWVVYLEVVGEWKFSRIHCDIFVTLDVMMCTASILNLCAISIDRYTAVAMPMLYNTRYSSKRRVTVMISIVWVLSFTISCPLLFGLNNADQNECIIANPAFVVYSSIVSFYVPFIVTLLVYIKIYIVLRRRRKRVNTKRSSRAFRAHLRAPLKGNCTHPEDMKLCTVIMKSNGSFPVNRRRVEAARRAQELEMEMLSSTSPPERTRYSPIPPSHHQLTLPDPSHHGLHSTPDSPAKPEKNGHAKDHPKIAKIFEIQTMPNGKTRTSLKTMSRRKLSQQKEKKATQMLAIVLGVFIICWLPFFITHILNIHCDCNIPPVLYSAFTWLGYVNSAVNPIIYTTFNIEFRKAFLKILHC
Sequence of Sodium-dependent serotonin transporter (P31645 whole entry): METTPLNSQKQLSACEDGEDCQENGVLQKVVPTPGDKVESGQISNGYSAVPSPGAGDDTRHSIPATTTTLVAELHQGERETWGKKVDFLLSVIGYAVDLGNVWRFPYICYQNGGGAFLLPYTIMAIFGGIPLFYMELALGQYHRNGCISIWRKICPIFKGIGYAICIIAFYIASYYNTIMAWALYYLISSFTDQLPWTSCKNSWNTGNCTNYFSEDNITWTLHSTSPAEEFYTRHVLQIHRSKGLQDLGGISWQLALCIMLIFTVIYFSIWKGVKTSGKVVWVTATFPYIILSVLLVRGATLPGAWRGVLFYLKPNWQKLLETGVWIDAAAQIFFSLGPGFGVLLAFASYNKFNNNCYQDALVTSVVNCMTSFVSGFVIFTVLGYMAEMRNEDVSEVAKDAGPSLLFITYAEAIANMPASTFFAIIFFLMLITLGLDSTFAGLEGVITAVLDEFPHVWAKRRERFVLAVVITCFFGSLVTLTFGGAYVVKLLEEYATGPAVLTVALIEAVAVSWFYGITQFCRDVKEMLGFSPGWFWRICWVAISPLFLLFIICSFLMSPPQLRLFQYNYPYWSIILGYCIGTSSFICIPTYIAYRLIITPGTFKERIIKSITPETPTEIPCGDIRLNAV
Sequence of 5-hydroxytryptamine receptor 1E (P28566 whole entry): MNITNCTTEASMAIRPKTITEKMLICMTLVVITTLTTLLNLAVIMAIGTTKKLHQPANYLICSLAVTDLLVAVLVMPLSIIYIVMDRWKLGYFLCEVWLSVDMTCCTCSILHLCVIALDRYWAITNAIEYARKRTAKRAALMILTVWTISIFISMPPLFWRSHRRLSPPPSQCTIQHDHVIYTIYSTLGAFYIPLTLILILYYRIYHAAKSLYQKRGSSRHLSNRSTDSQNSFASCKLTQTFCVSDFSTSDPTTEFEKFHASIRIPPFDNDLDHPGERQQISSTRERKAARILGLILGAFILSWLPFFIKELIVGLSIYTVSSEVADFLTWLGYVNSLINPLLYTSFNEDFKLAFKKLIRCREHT

| SMILES | pKi [1] | pKi [2] | pKi [3] | pKi [4] | pKi [5] | pKi [6] | pKi [7] | pKi [8] |
| --- | --- | --- | --- | --- | --- | --- | --- | --- |
| Cc1ncc2nccn2c1-c1ccc(Oc2nccc3occc23)cc1C(F)(F)F | 5.04 | 5.05 | 5.14 | < 5.00 | 5.02 | 5.06 | 5.14 | 5.02 |
| Cc1cc(Oc2nccc3occc23)ccc1-c1c(C)ncc2nccn12 | 5.10 | 5.01 | 5.51 | < 5.00 | 5.08 | 5.47 | 5.11 | 5.12 |
| FC(F)(F)c1cc(Oc2nccc3ccsc23)ccc1-c1cccc2nccn12 | 5.12 | 5.11 | 5.49 | < 5.00 | 5.06 | 5.54 | 5.77 | 5.07 |
| FC(F)(F)c1cc(Oc2nccc3occc23)ccc1-c1cccc2nccn12 | 5.03 | 5.00 | 5.82 | 5.01 | 5.12 | 5.15 | 5.09 | 5.07 |
